Test results reported in patent US10766888B1, “HMOX1 inducers” (Mitobridge Inc., priority 2019, dated 2020).
Counter-ions that a name gives are not always drawn.

What follows are compounds tested on Human Heme Oxygenase-1 (HMOX-1) (assay: ELISA assay to measure human heme oxygenase-1 (HMOX-1) in HepG2 lysate). Conditions: fold change of human HMOX1 protein level relative to DMSO control, HepG2.
Format: cell-based
Method: Example 143. ELISA Assay to Measure Human Heme Oxygenase-1 (HMOX-1) in HepG2 lysate
Reagents and Technical Notes:
ELISA capture antibody, standard HO-1, detection antibody and streptavidin HRP were supplied in the DuoSet IC Human total HO-1 ELISA from R&D systems (DYC3776-2). The substrate cocktail was KPL LumiGLO reserve Chemiluminescent Substrate (54-71-00). PBS was Corning Cellgro Cell Culture (21-040-CV). 10×PBS+0.05% tween20 (PBST) was from KPL.
All incubations of the plate were at room temperature (20° C.) in a closed drawer.
The ELISA plate was processed manually. All loadings were with a multichannel pipet. Plates were emptied by shaking into the sink and tapping onto paper towels to remove any remaining reagent. Plate washing was accomplished by loading all wells with PBS+0.05% tween20 (PBST) using a squirt bottle, shaking the PBST out and tapping the plate onto paper towels.
Preparation of the ELISA Plate:
• 1. anti-HO-1 capture antibody was 1440 μg/ml after reconstitution in PBS. This antibody was diluted to 8 μg/ml in PBS and 50 μl per well was added to a 384 well greiner “lumitrac 200” plate. Incubated overnight. • 2. The plate was emptied and 100 μl PBS+1% BSA added to all wells. Incubated 90 minutes at room temperature. Preparation of HepG2 Lysate: • 1. Cells were cultured in a 96-well tissue culture plate washed with PBS and then the plate frozen at −70° C. overnight. Plates were allowed to warm to ice temperature in an ice bucket. 20 μl of PBS, 0.5% Triton X100, 1 mM EDTA with 1×HALT™ protease inhibitors was added to each well and the plates incubated on ice for 1 hour. • 2. The lysates were frozen at −20° C. overnight. Measurement of HMOX1 (“HO-1”) • 1. In a polypropylene 384 well plate, human HO-1 (after reconstitution in PBS+0.5% Triton+1 mM EDTA) was serially diluted from 20 ng/ml 2-fold in PBS+0.5% triton-X100, 1 mM EDTA to make a 12-point standard curve including a zero point. • 2. In a polypropylene 96 well plate, HepG2 lysate was diluted 1 to 20 in Diluent #4 from DUOSET kit in which the assay standard is also diluted. • 3. The PBS+1% BSA was emptied from the ELISA plate and 30 μl of all samples and standards were added (duplicates recommended). The plate was incubated 90 minutes. • 4. Emptied plate and washed 4 times with PBST. • 5. Diluted HO-1 detection antibody to 200 ng/ml in PBS+1% BSA and added 30 μl to all wells. Incubated 90 minutes. • 6. Emptied plate and washed 4 times with PBST. • 7. Added 30 μl streptavidin HRP at 1/200 in PBS+1% BSA (stock streptavidin concentration not specified) to all wells. Incubated 30 minutes. • 8. Emptied plate and washed 4 times with PBST. • 9. Diluted Lumiglo reserve reagent two parts buffer to one part lumiglo substrate. Added 30 μl to all wells. Incubated 5 minutes. • 10. Measured chemiluminescence on spectramax M5 using 150 ms integration.
Table 1 below lists EC50 and fold changes of human HMOX1 protein levels relative to DMSO control upon treatment with representative compounds.

| Maximum Fold induction [fold] | Compound |
| --- | --- |
| 15.42 | COCCNC(=O)c1ccc2c(c1)nc(Nc1nc3cc(C)ccc3o1)n2C [Example 65, N-(2-methoxyethyl)-1-methyl-2-((5-methylbenzo[d]oxazol-2-yl)amino)-1H-benzo[d]imidazole-5-carboxamide] |
| 15 | COCCOc1ccc2nc(Nc3nc4cc(C(=O)O)ccc4n3C)oc2c1 [Example 55, 2-((6-(2-methoxyethoxy)benzo[d]oxazol-2-yl)amino)-1-methyl-1H-benzo[d]imidazole-5-carboxylic acid] |

Same assay, conditions: human HMOX1 protein level in HepG2 lysate; * = average of 2 or more EC50 determinations; NA = Not Active; read-out: EC50

| Compound | EC50 [µM] |
| --- | --- |
| Cn1c(Nc2nc3ccc(Cl)cc3o2)nc2cc(C(=O)O)ccc21 [Example 96, 2-((6-chlorobenzo[d]oxazol-2-yl)amino)-1-methyl-1H-benzo[d]imidazole-5-carboxylic acid] | 2.8 |
| Cn1c(Nc2nc3ccc(OC(F)(F)F)cc3o2)nc2cc(C(=O)NCCS(C)(=O)=O)ccc21 [Example 54, 1-methyl-N-(2-(methylsulfonyl)ethyl)-2-((6-(trifluoromethoxy)benzo[d]oxazol-2-yl)amino)-1H-benzo[d]imidazole-5-carboxamide] | 3.2 |
| CCn1c(Nc2nc3ccc(OC(F)(F)F)cc3o2)nc2cc(C(=O)O)ccc21 [Example 84, 1-ethyl-2-((6-(trifluoromethoxy)benzo[d]oxazol-2-yl)amino)-1H-benzo[d]imidazole-5-carboxylic acid] | 5.4 |
| CN1CCC(n2c(Nc3nc4ccc(OC(F)(F)F)cc4s3)nc3cc(C(=O)O)ccc32)C1 (stereo not shown) [Example 4d, 1-(1-methylpyrrolidin-3-yl)-2-((6-(trifluoromethoxy)benzo[d]thiazol-2-yl)amino)-1H-benzo[d]imidazole-5-carboxylic acid] | 4.7 |
| Cn1c(Nc2nc3ccccc3o2)nc2cc(C(=O)O)ccc21 [Example 1h, 2-(benzo[d]oxazol-2-ylamino)-1-methyl-1H-benzo[d]imidazole-5-carboxylic acid] | 4.4 |
| Cn1c(Nc2nc3cc(C(=O)O)ccc3n2C)nc2cc(OC(F)(F)F)ccc21 [Example 15, 1-methyl-2-((1-methyl-5-(trifluoromethoxy)-1H-benzo[d]imidazol-2-yl)amino)-1H-benzo[d]imidazole-5-carboxylic acid] | 5.3 |
| COCCNC(=O)c1ccc2c(c1)nc(Nc1nc3c(s1)COCC3)n2C [Example 11, 2-((6,7-dihydro-4H-pyrano[4,3-d]thiazol-2-yl)amino)-N-(2-methoxyethyl)-1-methyl-1H-benzo[d]imidazole-5-carboxamide] | 6.6 |
| Cn1c(Nc2nc3ccc(C4CC4)cc3o2)nc2cc(C(=O)O)ccc21 [Example 115, 2-((6-cyclopropylbenzo[d]oxazol-2-yl)amino)-1-methyl-1H-benzo[d]imidazole-5-carboxylic acid] | 6.2 |
| Cn1c(Nc2nc3ccc(OCCO)cc3o2)nc2cc(C(=O)NCCN)ccc21 [Example 105, N-(2-aminoethyl)-2-((6-(2-hydroxyethoxy)benzo[d]oxazol-2-yl)amino)-1-methyl-1H-benzo[d]imidazole-5-carboxamide hydrochloride] | 4.1 |
| Cn1c(Nc2nc3ccc(OC(F)(F)F)cc3o2)nc2cc(C(=O)O)c(F)cc21 [Example 70, 6-fluoro-1-methyl-2-((6-(trifluoromethoxy)benzo[d]oxazol-2-yl)amino)-1H-benzo[d]imidazole-5-carboxylic acid] | 3.2 |
| O=C(O)c1ccc2c(c1)nc(Nc1nc3ccc(OC(F)(F)F)cc3o1)n2CC1CCOC1 (stereo not shown) [Example 87, 1-((tetrahydrofuran-3-yl)methyl)-2-((6-(trifluoromethoxy)-benzo[d]oxazol-2-yl)amino)-1H-benzo[d]imidazole-5-carboxylic acid] | 6.8 |
| CN(C)CCn1c(Nc2nc3ccc(OC(F)(F)F)cc3o2)nc2cc(C(=O)O)ccc21 [Example 74, 1-(2-(dimethylamino)ethyl)-2-((6-(trifluoromethoxy)benzo[d]oxazol-2-yl)amino)-1H-benzo[d]imidazole-5-carboxylic acid] | 3.6 |
| Cn1c(Nc2nc3ccc(OCC(F)(F)F)cc3o2)nc2cc(C(=O)O)ccc21 [Example 98, 1-methyl-2-((6-(2,2,2-trifluoroethoxy)benzo[d]oxazol-2-yl)amino)-1H-benzo[d]imidazole-5-carboxylic acid] | 4.1 |
| COCCOc1ccc2nc(Nc3nc4cc(C(=O)O)ccc4n3C)oc2c1 [Example 55, 2-((6-(2-methoxyethoxy)benzo[d]oxazol-2-yl)amino)-1-methyl-1H-benzo[d]imidazole-5-carboxylic acid] | 4.5 |
| COCCNC(=O)c1ccc2c(c1)nc(Nc1nc3cc(OC(F)(F)F)ccc3[nH]1)n2CCOC [Example 76, N,1-bis(2-methoxyethyl)-2-((5-(trifluoromethoxy)-1H-benzo[d]imidazol-2-yl)amino)-1H-benzo[d]imidazole-5-carboxamide] | 2.7 |
| Cn1c(Nc2nc3cc(C(=O)NCCOCCO)ccc3o2)nc2ccccc21 [Example 118, N-(2-(2-hydroxyethoxy)ethyl)-2-((1-methyl-1H-benzo[d]imidazol-2-yl)amino)benzo[d]oxazole-5-carboxamide] | 8 |
| COCCNC(=O)c1ccc2c(c1)nc(Nc1nc3ccc(OC(F)(F)F)cc3o1)n2CCS(C)(=O)=O [Example 90, N-(2-methoxyethyl)-1-(2-(methylsulfonyl)ethyl)-2-((6-(trifluoromethoxy)benzo[d]oxazol-2-yl)amino)-1H-benzo[d]imidazole-5-carboxamide] | 4.8 |

Stronger by EC50, values ahead:

| EC50 [µM] | Compound |
| --- | --- |
| 2 | Cn1c(Nc2nc3ccc(F)cc3o2)nc2cc(C(=O)O)ccc21 [Example 68, 2-((6-fluorobenzo[d]oxazol-2-yl)amino)-1-methyl-1H-benzo[d]imidazole-5-carboxylic acid] |
| 1.1 | CN(C)CCNC(=O)c1ccc2c(c1)nc(Nc1nc3ccccc3o1)n2C [Example 21, 2-(benzo[d]oxazol-2-ylamino)-N-(2-(dimethylamino)ethyl)-1-methyl-1H-benzo[d]imidazole-5-carboxamide] |
| 1.5 | COCCNC(=O)c1ccc2c(c1)nc(Nc1nc3ccc(OC(F)(F)F)cc3o1)n2CC1CCOC1 (stereo not shown) [Example 88, N-(2-methoxyethyl)-1-((tetrahydrofuran-3-yl)methyl)-2-((6-(trifluoromethoxy)benzo[d]oxazol-2-yl)amino)-1H-benzo[d]imidazole-5-carboxamide] |
| 1.2 | COCCNC(=O)c1ccc2c(c1)nc(Nc1nc3cc(C)ccc3o1)n2C [Example 65, N-(2-methoxyethyl)-1-methyl-2-((5-methylbenzo[d]oxazol-2-yl)amino)-1H-benzo[d]imidazole-5-carboxamide] |
| 1.6 | O=C(NCCO)c1ccc2c(c1)nc(Nc1nc3ccc(OC(F)(F)F)cc3o1)n2CC1(O)COC1 [Example 95, N-(2-hydroxyethyl)-1-((3-hydroxyoxetan-3-yl)methyl)-2-((6-(trifluoromethoxy)benzo[d]oxazol-2-yl)amino)-1H-benzo[d]imidazole-5-carboxamide] |
| 0.8 | COCCNC(=O)c1ccc2c(c1)nc(Nc1nc3ccccc3o1)n2C [Example 1i, 2-(benzo[d]oxazol-2-ylamino)-N-(2-methoxyethyl)-1-methyl-1H-benzo[d]imidazole-5-carboxamide] |
| 2.4 | Cn1c(Nc2nc3cc(Cl)ccc3[nH]2)nc2cc(C(=O)O)ccc21 [Example 82, 2-((5-chloro-1H-benzo[d]imidazol-2-yl)amino)-1-methyl-1H-benzo[d]imidazole-5-carboxylic acid] |
| 1.1 | COCCNC(=O)c1ccc2c(c1)nc(Nc1nc3ccc(OC(F)(F)F)cc3s1)n2C1CCN(C)CC1 [Example 3e, N-(2-methoxyethyl)-1-(1-methylpiperidin-4-yl)-2-((6-(trifluoromethoxy)benzo[d]thiazol-2-yl)amino)-1H-benzo[d]imidazole-5-carboxamide] |
| 2 | Cn1c(Nc2nc3ccc(OC4CCOCC4)cc3o2)nc2cc(C(=O)NCCOCCO)ccc21 [Example 138, N-(2-(2-hydroxyethoxy)ethyl)-1-methyl-2-((6-((tetrahydro-2H-pyran-4-yl)oxy)benzo[d]oxazol-2-yl)amino)-1H-benzo[d]imidazole-5-carboxamide] |
